The experiment deals with T1, LPAAT-β (Homo sapiens, UniProt O15120).
T1 construct: the full-length human LPAAT-β cDNA was amplified by PCR; poly-histidine tag (from pFastBac HTc vector) (N); made in house; host or cells: Sf9 insect cells (baculovirus); membrane fraction used
T1 sequence (O15120 24-278): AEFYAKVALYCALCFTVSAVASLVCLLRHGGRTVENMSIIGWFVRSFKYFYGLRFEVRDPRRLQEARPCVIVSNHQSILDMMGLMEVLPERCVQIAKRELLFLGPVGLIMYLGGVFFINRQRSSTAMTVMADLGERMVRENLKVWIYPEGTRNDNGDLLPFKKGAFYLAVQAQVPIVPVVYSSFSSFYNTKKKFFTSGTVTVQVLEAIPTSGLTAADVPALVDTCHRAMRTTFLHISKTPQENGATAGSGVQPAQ
The experiment can be described thus: LPAAT-β cell-free assay (colorimetric primary screen, radiometric/fluorescent TLC secondary assay). The format is biochemical. The note with it: Sf9 cell membrane overexpressing LPAAT-β. An excerpt: A. Production of Recombinant LPAAT-β for Assays
For the construction of Baculovirus expression vectors, the full-length human LPAAT-β cDNA was amplified by PCR from the DNA template pCE9.LPAAT-β (West et al., DNA Cell Biol. 16:691-701 (1997)) using the primers 5′-[…] […] […] […]-3′ (olpb1F; SEQ ID NO:1) and 5′-[…] […] […]-3′ (olpb1R; SEQ ID NO:2). The ˜870 bp fragment generated was reamplified by PCR using the primers 5′[…] […] […] […] ATC-3′ (olpb2F; SEQ ID NO:3) and 5′-[…] […] […]-3′ (olpb1R; SEQ ID NO:2). The ˜890 bp fragment generated was then cleaved with Sal I and Xba I for insertion into pFastBac™ HTc vector (Life Technologies, Gaithersberg, Md.) between the Sal I and Xba I sites for the generation of the plasmid pFB.LPAAT-β. This plasmid was then transformed into E. coli DH10Bac™ (Life Technologies, Gaithersberg, Md.) for the generation of recombinant Bacmid DNA for transfection in HighFive (Invitrogen, San Diego, Calif.) or SF9 insect cells for the production of recombinant Baculovirus stocks using the protocol described in the Bac-to-Bac® Baculovirus Expression System (Life Technologies, Gaithersberg, Md.), a eukaryotic expression system for generating recombinant baculovirus through site-specific transposition in E. coli. Viral stocks harvested from the transfected cells can then be used to infect fresh insect cells for the subsequence expression of LPAAT-β fusion protein with a poly-histidine tag and a myc-epitope near its N-terminus. The membrane fraction from these Sf9 cells would be the source of LPAAT enzyme.
B. Preparation of Cell Membranes from Sf9 Cells
For the preparation of membranes from Sf9 Cells, all steps are performed on ice or at 4° C. Sf9 cell pellets (˜10^8 cells) were thawed and resuspended in 1-2 ml of buffer A (20 mM Hepes, pH 7.5, 1 mM DTT, 1 mM EDTA, 20% w/v glycerol, 1 mM Benzamidine, 1 μg/ml soybean trypsin inhibitor (SBTI), 1 μg/ml pepstatin A) w/o DTT but with 1 mM Pefabloc. The cells were lysed by sonication using a Branson Sonifier at output=2, duty cycle=2, 10 pulses each at 10s. with the tip of small sonicator probe submerged but not touching the walls. DTT was then added to 1 mM from a 1 M stock. The samples were centrifuged at 1500 rpm for 5 min. The low speed supernatant was saved and centrifuged (TLA 100.3 rotor, polycarbonate tubes, 2 ml/tube or 1.5 ml/tube minimum) at 100000×g for 1 hr. The high speed pellet was resuspend in Buffer A with a probe sonicator (10 pulses @ output #2 and duty cycle 20%) as a source of LPAAT enzyme.
C. Assay of LPAAT-β Activity
LPAAT-β catalyzes the transfer of an acyl group from a donor such as acyl-CoA to LPA. The transfer of the acyl group from acyl-CoA to LPA leads to the release of free CoA, which can be reacted with the thiol reagent, 5,5′-dithiobis(2-nitrobenzoic acid) (DTNB). The reaction between DTNB and the free sulfhydryl group from CoA generates a yellow-colored product, 3-carboxylato-4-nitrothiophenolate (CNP), that absorbs at 413 nm. LPAAT-β derived from Sf9 cell membrane overexpressing LPAAT-β were resuspended in HEPES saline buffer (20 mM HEPES pH 7.5, 150 mM NaCl), 1 mg/ml BSA and 72 μl aliquots were distributed into 96-well microtiter plates. 8 μl of compound of interest at 200 μM dissolved in 100% DMSO was added into each well. 20 μl of 1 mM 18:1-CoA and 1 mM sn-1-18:1 lysoPA was then added to each well to initiate the reaction and allowed to run at room temperature for 25 min. 100 μl of 1 mM DTNB in 100% ethanol was then added to each well to quench the reaction and for color development. The absorbance at 405 nm, measured using a spectrophotometer plate reader, is proportional to the activity of LPAAT-β in the sample. This colorimetric assay was used for the high throughput screening of LPAAT inhibitors.

The values that follow come from patent US7618968B2, “Aryl triazines as LPAAT-β inhibitors and uses thereof” (Cell Therapeutics, Inc., priority 2001, dated 2009).

For the compound `Nc1nc(Nc2ccc(Cl)cc2)nc(-c2cc(Cl)ccc2Cl)n1` [Example 4, 6-(2,5-Dichlorophenyl)-N-(4-chlorophenyl)-[1,3,5]triazine-2,4-diamine], the IC50 (commonly the concentration that gives 50% inhibition) came to 0.05 µM.
As to `Cc1ccc(Cl)cc1-c1nc(Cl)nc(Nc2ccc(N=[N+]=[N-])cc2)n1` [Example 35, [6-(5-Chloro-2-methyl-phenyl)-2-chloro-3-yl-[1,3,5]-triazin-4-yl]-(4-azido-phenyl)-amine], the IC50 was found to be 0.13 µM.
On to `Cc1ccc(Cl)cc1-c1nc(N)nc(Nc2ccc(Br)cc2)n1` [Example 11, N-2-(4-Bromophenyl)-6-(5-chloro-2-methylphenyl)-[1,3,5]triazine-2,4-diamine], for which half-maximal inhibition (IC50) was put at 0.06 µM. This IC50 is about 2.2-fold lower than that of the compound before.
Compound `CCOc1ccc(Cl)cc1-c1nc(N)nc(Nc2ccc([N+](=O)[O-])cc2)n1` [Example 54, 6-(5-Chloro-2-ethoxyphenyl)-N-(4-nitrophenyl)-[1,3,5]triazine-2,4-diamine] came in with a half-maximal inhibitory concentration (IC50) of 0.12 µM.
`CCOc1ccc(Cl)cc1-c1nc(N)nc(Nc2ccc3c(c2)OCO3)n1` [Example 55, N-Benzo[1.3]dioxol-5-yl-6-(5-chloro-2-ethoxy-phenyl)[1,3,5]triazine-2,4-diamine] returned a half-inhibitory concentration (IC50) of 0.8 µM.
To `Cc1ccc(Cl)cc1-c1nc(N)nc(Nc2ccc(CN(C)C)cc2)n1` [Example 58, 6-(5-Chloro-2-methyl-phenyl)-N-(4-dimethylaminomethyl-phenyl)-[1,3,5]triazine-2,4-diamine] belongs 1.8 µM; to `COc1ccc(OC)c(-c2nc(N)nc(Nc3ccc(Cl)cc3)n2)c1` [Example 17, N-(4-chlorophenyl)-6-(2,5-dimethoxyphenyl)-[1,3,5]triazine-2,4-diamine], 1 µM; to `Cc1ccc(Cl)cc1-c1nc(Cl)nc(Nc2ccc(Br)cc2)n1` [Example 20, (4-Bromo-phenyl)-[4-chloro-6-(5-chloro-2-methyl-phenyl)-[1,3,5]triazin-2-yl]-amine], 0.01 µM.
`COCCOc1ccc(Cl)cc1-c1nc(N)nc(Nc2ccc(Cl)cc2)n1` [Example 65, 6-[5-Chloro-2-(2-methoxy-ethoxy)-phenyl]-N-(4-chloro-phenyl) [1,3,5]triazine-2,4-diamine] yielded a half-inhibitory concentration (IC50) of 0.6 µM.
`Nc1nc(Nc2ccc(Br)cc2)nc(-c2cc(Cl)ccc2C(F)(F)F)n1` [Example 40, N-(4-bromophenyl)-6-(5-chloro-2-trifluoromethylphenyl)-[1,3,5]triazine-2,4-diamine] registered a half-inhibitory concentration (IC50) of 2.6 µM. Against the preceding compound, the IC50 is about 4.3-fold higher.
As for `Cc1ccc(Cl)cc1-c1nc(Cl)nc(Nc2ccc([N+](=O)[O-])cc2)n1` [Example 30, [6-(5-Chloro-2-methyl-phenyl)-2-chloro-3-yl-[1,3,5]-triazin-4-yl]-(4-nitro-phenyl)-amine], the figure is 0.01 µM; as for `COc1ccc(Cl)cc1-c1nc(N)nc(Nc2ccc([N+](=O)[O-])cc2)n1` [Example 3, 6-(5-Chloro-2-methoxyphenyl)-N-(4-nitrophenyl)-[1,3,5]triazine-2,4-diamine], 0.022 µM; as for `Cc1ccc(Cl)cc1-c1nc(N)nc(Nc2ccc(CCl)cc2)n1` [Example 88, N-(4-Chloromethyl-phenyl)-6-(5-chloro-2-methyl-phenyl)-[1,3,5]triazine-2,4-diamine], 0.18 µM.
To `N#Cc1ccc(Nc2nc(N)nc(-c3cc(Cl)ccc3Cl)n2)cc1` [Example 89, 4-[4-Amino-6-(2,5-dichlorophenyl)-[1,3,5]triazin-2-ylamino]-benzonitrile] belongs 0.1 µM.
To `CN(C)c1ccc(Cl)cc1-c1nc(N)nc(Nc2ccc(Cl)cc2)n1` [Example 47, 6-(5-Chloro-2-dimethylaminophenyl)-N-(4-chlorophenyl)-[1,3,5]triazine-2,4-diamine] belongs 0.14 µM; to `Cc1ccc(Cl)cc1-c1nc(N)nc(Nc2ccc(CF)cc2)n1` [Example 68, 6-(5-Chloro-2-methyl-phenyl)-N-(4-fluoromethyl-phenyl)-[1,3,5]-triazine-2,4-diamine], 0.13 µM; to `Cc1ccc(Cl)cc1-c1nc(N)nc(Nc2ccc(COC(=O)[C@@H](N)CC(=O)O)cc2)n1` [Example 72, (S)-2-Amino-succinic acid 1-{4-[4-amino-6-(5-chloro-2-methyl-phenyl)-[1,3,5]triazin-2-ylamino]-benzyl}ester], 1.4 µM.
Compound `Nc1nc(Nc2ccc(Cl)cc2)nc(-c2cccc(Cl)c2)n1` [Example 16, N-(4-chlorophenyl)-6-(3-chlorophenyl)-[1,3,5]triazine-2,4-diamine] yielded an IC50 of 0.8 µM.
For the compound `Cc1ccc(Cl)cc1-c1nc(N)nc(Nc2ccc(COC(=O)CCC(=O)O)cc2)n1` [Example 70], the IC50 is 0.83 µM.
On to `Nc1nc(Nc2ccc(CO)cc2)nc(-c2cc(Cl)ccc2Cl)n1` [Example 46, {4-[4-Amino-6-(2,5-dichloro-phenyl)-[1,3,5]triazin-2-ylamino]-phenyl}-methanol], for which the IC50 was found to be 0.44 µM.
To `Cc1ccc(Cl)cc1-c1nc(Cl)nc(Nc2ccc3cn[nH]c3c2)n1` [Example 26, [4-Chloro-6-(5-chloro-2-methyl-phenyl)-[1,3,5]triazin-2-yl]-(1H-indazol-6-yl)-amine] belongs 0.004 µM; to `CC(C)Oc1ccc(Cl)cc1-c1nc(N)nc(Nc2ccc(Cl)cc2)n1` [Example 52, 6-(5-Chloro-2-isopropoxy-phenyl)-N-(4-chloro-phenyl)-[1,3,5]triazine-2,4-diamine], 0.62 µM.
To `Cc1ccc(Cl)cc1-c1nc(N)nc(Nc2ccc(COC(=O)CN)cc2)n1` [Example 71, Amino-acetic acid 4-[4-amino-6-(5-chloro-2-methyl-phenyl)-[1,3,5]triazin-2ylamino]-benzyl ester] belongs 0.48 µM; to `Cc1ccc(Cl)cc1-c1nc(N)nc(Nc2ccc(COC(=O)[C@@H](N)CCCNC(=N)N)cc2)n1` [Example 75, (S)-2-Amino-5-guanidino-pentanoic acid 4-[4-amino-6-(5-chloro-2-methyl-phenyl)-[1,3,5]triazin-2-ylamino]-benzyl ester], 0.97 µM.
To `Nc1nc(Nc2ccc(Cl)cc2)nc(-c2cc(C(F)(F)F)ccc2Cl)n1` [Example 81, N-(4-Chloro-phenyl)-6-(2-chloro-5-trifluoromethyl-phenyl)-[1,3,5]triazine-2,4-diamine] belongs 0.1 µM.
Turning to `Cc1ccc(Nc2nc(N)nc(-c3cc(Cl)ccc3C)n2)cc1` [Example 39, 6-(5-Chloro-2-methyl-phenyl)-N-p-tolyl-[1,3,5]triazine-2,4-diamine], the half-inhibitory concentration (IC50) amounted to 0.32 µM.
`Nc1nc(Nc2ccc3cn[nH]c3c2)nc(-c2cc(Cl)ccc2Cl)n1` [Example 48, 6-(2,5-Dichloro-phenyl)-N-(1H-indazol-6-yl)-[1,3,5]triazine-2,4-diamine] came in with an IC50 of 0.11 µM.
Turning to `CCc1nc(Nc2ccc(Br)cc2)nc(-c2cc(Cl)ccc2C)n1` [Example 24], inhibition was half-maximal at 0.7 µM (IC50).
To `COc1nc(Nc2ccc(Br)cc2)nc(-c2cc(Cl)ccc2C)n1` [Example 21] belongs 0.2 µM.
